From patent US20230270653A1, “USE OF TREHALOSE FOR INHIBITING AILMENT INDUCING MICROORGANISMS” (Conopco, Inc., d/b/a UNILEVER, priority 2020, published 2023)

Tests used:
[1] = system: M. restricta; test: Overlay assay, Log10 reduction (Kill) of M. restricta; type: cell-based, Malassezia restricta
Description: (§1) Staphylococcus hominis (S. hominis, ATCC 27844), Cutibacterium acnes (C. acnes, ATCC6919), Staphylococcus aureus (S. aureus, ATCC 6538), and Malassezia restricta (M. restricta, ATCC 7877) were inoculated from freezer stock onto agar plates according to culture conditions as shown in table 1. Then, one loop of microbes from agar plate was inoculated into a liquid culture system according to the culture condition as shown in table 1. M. restricta were reinoculated on MLNA plate twice before use. Cell density of bacteria (S. hominis, C. acnes and S. aureus) was adjusted to concentration at 10^8 cfu/mL for further use based on absorption at 600 nm. Cell density of M. restricta was adjusted to concentration at 10^8 cfu/mL for further use based on absorption at 610 nm.
(§2) On Day 0, 15 mL of TSA containing (1) 2% Trehalose and 10^6 cfu/ml S. hominis, (2) 10^6 cfu/ml S. hominis alone (without trehalose), and (3) 2% trehalose alone (without S. hominis) was solidified in a […] petri dish and cultured at 37° C. for four days. TSA agar without S. hominis nor trehalose was prepared in parallel as control. […]
(§3) At the end, Log10 reduction (Kill) were determined for the targeted microorganisms, M. restricta and S. aureus on plate (1), (2), and (3) as compared to the respective M. restricta or S. aureus growth on control plate

[2] = system: S. aureus; test: Overlay assay, Log10 reduction (Kill) of S. aureus; type: cell-based, Staphylococcus aureus
Description: as §1, §2, §3

OC[C@H]1O[C@H](O[C@H]2O[C@H](CO)[C@@H](O)[C@H](O)[C@H]2O)[C@H](O)[C@@H](O)[C@@H]1O [A, trehalose]
Log10 reduction (Kill) of M. restricta ([1]; TSA plate cultured at 37° C. for four days, MLNA overlay, serially diluted M. restricta (ATCC 7877) dotted on, compared to growth on control plate): 0

OC[C@H]1O[C@H](O[C@H]2O[C@H](CO)[C@@H](O)[C@H](O)[C@H]2O)[C@H](O)[C@@H](O)[C@@H]1O [C, trehalose]
Log10 reduction (Kill) of S. aureus ([2]; TSA plate cultured at 37° C. for four days, TSA overlay, serially diluted S. aureus (ATCC 6538) dotted on, compared to growth on control plate): 1

OC[C@H]1O[C@H](O[C@H]2O[C@H](CO)[C@@H](O)[C@H](O)[C@H]2O)[C@H](O)[C@@H](O)[C@@H]1O [Trehalose]
effectiveness against Malassezia restricta ([1]; in the presence of S. hominis, conclusion from Table 3): effective
effectiveness against Staphylococcus aureus ([2]; in the presence of S. hominis, conclusion from Table 4): effective
